In patent publication US20200017752A1, “Use Of A Composition Containing At Least One Biodegradable Sugar-Amide-Compound In Combination With At Least One Sulfur-Based Synergist For Corrosion Inhibition Of A Metallic Equipment In Oilfield Applications” (Clariant International Ltd., priority 2016, published 2020):

Columns and labels:
[1] = Corrosion test, rotating cylinder electrode (RCE), LPR; conditions: 150° F., 2000 RPM, synthetic brine, 100% CO2, 12 ppm total inhibitor, vs 2 hr baseline
Description: In order to evaluate the corrosion inhibition efficacy of the formulations, two different test methods were employed: rotating cylinder electrode (RCE) tests and high pressure, high temperature (HPHT) autoclave weight loss tests. For all testing, the following standard brine composition was used (as outlined in table 3):
A gas composition of 100% CO2 was used throughout testing.
The metallurgy of the coupons tested was C1018 carbon steel for RCE testing and HPHT autoclave testing. Coupons were polished mechanically using 320 grit silicon-carbide (SiC) paper, 400 grit SiC paper, then 600 grit SIC paper and rinsed with water then acetone prior to testing.
The rotating cylinder electrode (RCE) tests were conducted in Pyrex™ glass reaction kettles that were heated to 150° F. The testing solution was comprised of 900 mL of brine. The electrode rotation rate was set at 2000 RPM, which generated a wall shear stress of 7.0 Pa. Linear polarization resistance (LPR) measurements were made with a Gamry electrochemical measurement system. The working electrode was made of a 1018 carbon steel (CS) cylinder with a surface area of 3.16 cm^2. A Hastelloy C276 electrode was used as a pseudo-reference, and a titanium rod was used as the counter electrode. […] The baseline corrosion rate corresponds to the blank corrosion value. Upon completion of the tests, the electrodes were cleaned in an inhibited acid bath according to ASTM G1 C.3.5, and weighed to 0.1 mg.

Algae = assay: Aquatic toxicity testing, 72 hr Algae EC50; format: cell-based
Method: (§1) Firstly the environmental data were determined according to OECD 306 biodegradability and aquatic toxicity testing on the glucamides and the result is outlined in Tables 1 and 2.

[2] = Marine BODIS biodegradation
Method: as §1

Compound	Protection 2 hr after Cl dose [1] [%]	Protection Final 3 hr [1] [%]	OECD 306 biodegradation Day 7 (OECD 306 biodegradation) [%]	OECD 306 biodegradation Day 14 (OECD 306 biodegradation) [%]	OECD 306 biodegradation Day 21 (OECD 306 biodegradation) [%]	OECD 306 biodegradation Day 28 (OECD 306 biodegradation) [%]	72 hr Algae EC50, Definitive result (Algae) [mg/L]	72 hr Algae EC50, Range-finding result (Algae) [mg/L]	Marine BODIS biodegradation Day 7 [2] [%]	Marine BODIS biodegradation Day 14 [2] [%]	Marine BODIS biodegradation Day 21 [2] [%]	Marine BODIS biodegradation Day 28 [2] [%]
CC(C)CCC(C)CCC(C)CC(=O)N(C)CC1OC(CO)C(O)C1O (centres unmarked) [Glucamide #4]	76.0	94.3										
N.O=C(O)CS [ATG, Ammonium Thioglycolate]	71.8	91.4	9	20	33	39						
CCCCCCCCCC(=O)N(C)CC(O)C(O)C(O)C(O)CO (centres unmarked) [Glucamide #1]	72.1	92.7	15	25	33	31	165.24	335.40				
CCCCCCCC/C=C\CCCCCCCC(=O)N(C)CC1OC(CO)C(O)C1O (centres unmarked) [Glucamide #6]	76.7	94.2										
NC(N)=S [TU, Thiourea]			19	32	20	55						
CCCCCCCCCC(=O)N(C)CC1OC(CO)C(O)C1O (centres unmarked) [Glucamide #3]	73.4	93.5										
OCCS [MET, Mercaptoethanol]	74.4	91.4	5	6	8	17						
CC(C)CCC(C)CCC(C)CC(=O)N(C)CC(O)C(O)C(O)C(O)CO (centres unmarked) [Glucamide #2]	79.1	93.8										
CCCCCCCC/C=C\CCCCCCCCN[C@@H](CCSC)C(=O)O [OMet, N-Oleyl-Methionine]	77.6	92.7	60	60	60	60						
CCCCCCCC/C=C\CCCCCCCC(=O)N(C)CC(O)C(O)C(O)C(O)CO (centres unmarked) [Glucamide #5]	75.7	94.0					4.55	6.199	23	33	37	42
N.N.O=S(O)(O)=S [ATS, Ammoniumthiosulfate]	75.6	91.2										
O=C([O-])c1ccccc1.[Na+] [Reference, sodium benzoate, reference compound]			78	74	86	68			66	77	81	83
